The target in series [1] is Rhesus PDE2A3 (Macaca mulatta, UniProt B3VTJ2). Briefly: PDE2 fluorescence polarization (IMAP FP) inhibition assay, rhesus PDE2A3. The format is biochemical, rhesus macaque. For orientation: Fluorescence polarisation rises when a labelled molecule tumbles more slowly, as on binding a larger partner.
Series [2] concerns the target human PDE2A1 (Homo sapiens (Human), UniProt O00408). Put plainly: PDE2 IMAP FP inhibition assay, human PDE2A1 (selectivity panel format). The format is biochemical. In outline:
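Enzyme dosed to give about 20% substrate turnover acts for 60 min at room temperature on 50 nM FAM-cAMP plus 1000 nM cGMP (Tris pH 7.2, MgCl2, DTT, Tween-20 buffer). IMAP binding solution then stops the reaction; after 1 h, polarization is measured from parallel and perpendicular fluorescence.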

The target in series [3] is P-glycoprotein (P-gp) (Homo sapiens (Human), UniProt P08183). Briefly: P-gp transport, experimental BA/AB ratio, human. The class given is in vitro ADME. The settings on record: LLC-PK1, 1 μM substrate concentration. The source says:
(§1) See Doan et al. “Passive permeability and P-glycoprotein-mediated efflux differentiate central nervous system (CNS) and non-CNS marketed drugs”, J. Pharm. Exper. […] Desirable human BA/AB ratio is less than 2.0. […] See, for example, Desai, et al. Integration of in Silico and in Vitro Tools for Scaffold Optimization during Drug Discovery: Predicting P-glycoprotein Efflux” Mol. Pharmac.

The target of series [4] is P-glycoprotein (P-gp, rat Mdr1a) (Rattus norvegicus, UniProt Q6PSM0). Put plainly: P-gp transport, experimental BA/AB ratio, rat LLC-Mdr1a. The format is in vitro ADME. The settings on record: LLC-PK1; rat LLC-Mdrla; 1 μM substrate concentration.
Source text: as §1

Read-outs that look alike come from different tables or passages of the source.

What is called Ki is the equilibrium dissociation constant of an inhibitor or competing ligand from its target. The efflux ratio is the permeability from basolateral to apical divided by that in the opposite direction, in the common usage.

P-glycoprotein (P-gp), sequence (P08183 whole entry): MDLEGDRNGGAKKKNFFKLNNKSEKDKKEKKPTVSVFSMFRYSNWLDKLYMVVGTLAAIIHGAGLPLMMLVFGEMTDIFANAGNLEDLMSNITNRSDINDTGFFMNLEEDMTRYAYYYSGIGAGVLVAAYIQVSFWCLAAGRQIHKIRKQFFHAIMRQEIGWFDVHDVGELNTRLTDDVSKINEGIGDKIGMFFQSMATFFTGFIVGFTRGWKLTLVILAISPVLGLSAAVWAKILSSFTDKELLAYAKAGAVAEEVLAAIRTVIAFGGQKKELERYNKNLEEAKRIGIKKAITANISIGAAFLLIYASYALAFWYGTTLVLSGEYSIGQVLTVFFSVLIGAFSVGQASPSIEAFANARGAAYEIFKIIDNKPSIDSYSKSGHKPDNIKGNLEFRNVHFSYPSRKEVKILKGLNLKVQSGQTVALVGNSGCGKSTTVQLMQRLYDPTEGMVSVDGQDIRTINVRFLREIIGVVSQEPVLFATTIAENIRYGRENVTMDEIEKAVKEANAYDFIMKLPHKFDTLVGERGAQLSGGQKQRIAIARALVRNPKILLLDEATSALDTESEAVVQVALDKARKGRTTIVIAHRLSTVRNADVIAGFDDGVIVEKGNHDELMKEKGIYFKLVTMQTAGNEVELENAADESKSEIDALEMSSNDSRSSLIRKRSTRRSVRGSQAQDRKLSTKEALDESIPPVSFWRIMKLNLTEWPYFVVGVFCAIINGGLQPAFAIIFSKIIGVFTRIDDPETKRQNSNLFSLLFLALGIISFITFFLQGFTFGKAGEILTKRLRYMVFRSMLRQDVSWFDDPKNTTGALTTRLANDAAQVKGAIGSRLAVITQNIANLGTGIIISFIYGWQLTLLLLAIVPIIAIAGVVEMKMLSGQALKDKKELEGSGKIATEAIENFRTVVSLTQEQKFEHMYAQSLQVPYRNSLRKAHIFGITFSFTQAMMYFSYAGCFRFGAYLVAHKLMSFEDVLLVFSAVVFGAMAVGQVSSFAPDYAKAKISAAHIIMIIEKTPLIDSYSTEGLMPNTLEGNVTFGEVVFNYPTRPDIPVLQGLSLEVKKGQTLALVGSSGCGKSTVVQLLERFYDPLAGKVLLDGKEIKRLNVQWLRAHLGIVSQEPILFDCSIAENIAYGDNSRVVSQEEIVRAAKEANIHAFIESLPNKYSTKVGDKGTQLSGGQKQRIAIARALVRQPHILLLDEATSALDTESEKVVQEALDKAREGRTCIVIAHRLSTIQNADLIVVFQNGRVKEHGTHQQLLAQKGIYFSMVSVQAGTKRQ
P-glycoprotein (P-gp, rat Mdr1a), sequence (Q6PSM0 1-1272): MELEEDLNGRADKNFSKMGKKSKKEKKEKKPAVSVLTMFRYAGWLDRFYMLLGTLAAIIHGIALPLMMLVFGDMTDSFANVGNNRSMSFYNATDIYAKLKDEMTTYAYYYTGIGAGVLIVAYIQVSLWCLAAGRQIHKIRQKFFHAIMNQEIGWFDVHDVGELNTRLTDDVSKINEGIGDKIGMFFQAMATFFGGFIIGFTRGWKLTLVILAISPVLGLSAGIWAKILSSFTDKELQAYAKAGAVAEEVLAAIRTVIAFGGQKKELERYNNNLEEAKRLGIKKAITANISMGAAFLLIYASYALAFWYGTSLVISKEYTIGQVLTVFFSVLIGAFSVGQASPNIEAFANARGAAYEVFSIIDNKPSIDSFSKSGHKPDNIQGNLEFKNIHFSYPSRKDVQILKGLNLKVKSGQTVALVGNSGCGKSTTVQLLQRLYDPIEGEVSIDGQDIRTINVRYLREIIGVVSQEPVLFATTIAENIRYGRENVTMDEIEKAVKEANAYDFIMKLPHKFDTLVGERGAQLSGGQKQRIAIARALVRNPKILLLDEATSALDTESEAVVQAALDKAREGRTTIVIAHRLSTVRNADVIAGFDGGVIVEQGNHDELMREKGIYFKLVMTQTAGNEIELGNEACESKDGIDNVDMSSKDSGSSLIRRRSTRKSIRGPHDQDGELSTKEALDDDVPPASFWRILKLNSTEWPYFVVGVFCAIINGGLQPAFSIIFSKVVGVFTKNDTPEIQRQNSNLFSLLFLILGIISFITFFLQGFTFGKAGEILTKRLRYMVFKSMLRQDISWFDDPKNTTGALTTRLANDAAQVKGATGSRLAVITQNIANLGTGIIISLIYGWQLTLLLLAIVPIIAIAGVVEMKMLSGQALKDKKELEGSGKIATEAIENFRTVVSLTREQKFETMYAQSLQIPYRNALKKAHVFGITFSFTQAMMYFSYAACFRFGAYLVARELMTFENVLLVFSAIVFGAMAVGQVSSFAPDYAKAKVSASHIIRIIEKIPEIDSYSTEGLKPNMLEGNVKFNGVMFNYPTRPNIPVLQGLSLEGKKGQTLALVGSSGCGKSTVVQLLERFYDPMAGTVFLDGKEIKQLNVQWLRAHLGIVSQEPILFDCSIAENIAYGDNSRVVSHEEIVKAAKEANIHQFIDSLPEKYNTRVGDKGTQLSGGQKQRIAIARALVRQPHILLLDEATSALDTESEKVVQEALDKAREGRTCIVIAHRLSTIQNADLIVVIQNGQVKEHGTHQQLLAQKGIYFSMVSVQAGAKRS
human PDE2A1, sequence (O00408 other isoform, or with tags, fused parts or gaps): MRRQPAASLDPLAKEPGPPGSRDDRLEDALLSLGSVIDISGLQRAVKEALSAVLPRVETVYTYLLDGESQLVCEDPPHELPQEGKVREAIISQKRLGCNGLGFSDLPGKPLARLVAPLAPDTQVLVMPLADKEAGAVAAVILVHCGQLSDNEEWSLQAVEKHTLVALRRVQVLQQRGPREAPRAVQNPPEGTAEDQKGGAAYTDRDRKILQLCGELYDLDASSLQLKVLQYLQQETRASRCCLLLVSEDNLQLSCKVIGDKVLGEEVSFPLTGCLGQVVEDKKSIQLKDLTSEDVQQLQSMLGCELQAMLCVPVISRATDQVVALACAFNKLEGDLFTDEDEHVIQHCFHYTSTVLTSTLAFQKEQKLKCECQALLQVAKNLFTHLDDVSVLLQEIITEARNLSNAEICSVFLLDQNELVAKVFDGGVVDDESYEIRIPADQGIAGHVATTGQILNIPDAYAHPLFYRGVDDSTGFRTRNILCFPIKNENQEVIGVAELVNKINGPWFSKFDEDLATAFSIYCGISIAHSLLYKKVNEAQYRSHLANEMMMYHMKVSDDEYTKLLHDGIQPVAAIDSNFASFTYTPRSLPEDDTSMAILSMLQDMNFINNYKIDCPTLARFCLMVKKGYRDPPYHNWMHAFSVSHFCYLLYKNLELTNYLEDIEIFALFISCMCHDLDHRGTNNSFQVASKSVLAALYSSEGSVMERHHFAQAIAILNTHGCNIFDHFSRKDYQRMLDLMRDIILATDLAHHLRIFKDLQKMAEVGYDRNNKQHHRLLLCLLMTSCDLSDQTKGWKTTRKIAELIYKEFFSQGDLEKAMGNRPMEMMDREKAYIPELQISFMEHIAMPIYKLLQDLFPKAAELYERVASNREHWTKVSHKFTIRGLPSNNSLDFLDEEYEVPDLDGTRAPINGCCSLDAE
Rhesus PDE2A3, sequence (B3VTJ2 1-941): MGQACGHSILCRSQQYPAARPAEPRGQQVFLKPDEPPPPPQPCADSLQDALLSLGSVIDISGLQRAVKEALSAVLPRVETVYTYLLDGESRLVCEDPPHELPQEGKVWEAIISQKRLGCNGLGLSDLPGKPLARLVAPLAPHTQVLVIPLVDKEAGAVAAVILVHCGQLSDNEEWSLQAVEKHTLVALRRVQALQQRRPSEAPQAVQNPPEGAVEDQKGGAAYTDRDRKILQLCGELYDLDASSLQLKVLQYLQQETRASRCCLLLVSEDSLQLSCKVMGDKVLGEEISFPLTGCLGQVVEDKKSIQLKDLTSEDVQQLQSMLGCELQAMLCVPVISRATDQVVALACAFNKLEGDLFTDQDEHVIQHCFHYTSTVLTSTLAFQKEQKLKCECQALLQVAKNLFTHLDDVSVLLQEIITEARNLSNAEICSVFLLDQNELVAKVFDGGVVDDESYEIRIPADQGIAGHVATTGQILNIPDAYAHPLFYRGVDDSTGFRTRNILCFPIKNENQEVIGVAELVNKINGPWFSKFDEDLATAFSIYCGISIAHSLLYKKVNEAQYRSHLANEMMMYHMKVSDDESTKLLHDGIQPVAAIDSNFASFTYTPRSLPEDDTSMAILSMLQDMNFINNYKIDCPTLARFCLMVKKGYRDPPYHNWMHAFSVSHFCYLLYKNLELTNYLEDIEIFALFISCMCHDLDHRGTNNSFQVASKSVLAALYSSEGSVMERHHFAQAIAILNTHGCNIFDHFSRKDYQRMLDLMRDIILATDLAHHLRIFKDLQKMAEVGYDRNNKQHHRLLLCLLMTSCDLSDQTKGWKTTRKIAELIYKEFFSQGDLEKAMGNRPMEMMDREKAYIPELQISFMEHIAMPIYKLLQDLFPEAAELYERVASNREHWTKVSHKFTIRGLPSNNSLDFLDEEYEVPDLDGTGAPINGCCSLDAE

As for `CC(C)[C@@H](NC(=O)c1cc(=O)[nH]c(N(C)C)n1)c1ccc(OC(F)F)c(F)c1` [Example 48, N-{(1R)-1-[4-(difluoromethoxy)-3-fluorophenyl]-2-methylpropyl}-2-(dimethylamino)-6-oxo-1,6-dihydropyrimidine-4-carboxamide], the Ki in series [1] (Lab B, read-out: Rhesus PDE2 Ki (nM) - Lab B) is 1.9 nM; in series [2] (Lab B, read-out: Human PDE2 Ki (nM) - Lab B), 1.7 nM. Besides, the efflux ratio at 1 μM in series [3] worked out at 1.5; in series [4], 6.4.

Take `C[C@@H](NC(=O)c1cc(=O)[nH]c(NC2CCC2)n1)c1ccc(C(F)(F)F)cc1` [Example 138, 2-(cyclobutylamino)-6-oxo-N-{(1R)-1-[4-(trifluoromethyl)phenyl]ethyl}-1,6-dihydropyrimidine-4-carboxamide]: the Ki in series [1] (Lab A, read-out: Rhesus PDE2 Ki (nM) - Lab A) is 67 nM; in series [2] (Lab A, read-out: Human PDE2 Ki (nM) - Lab A), 38 nM. Further, the efflux ratio at 1 μM in series [3] is 1.2; in series [4] it was 29.8.

(Values after patent US10285989B2, “Pyrimidinone amide compounds as PDE2 inhibitors” (Merck Sharp & Dohme Corp., priority 2015, dated 2019).)
